Patent publication US6610846B1, “Heteroaromatic glucokinase activators” (Hoffman-La Roche Inc., priority 1999, dated 2003)

Row | melting point [°C] | Structure (SMILES)
1 | 107 to 110 | CS(=O)(=O)c1ccc(C(CC2CCCC2)C(=O)Nc2ccccn2)cc1S(C)(=O)=O (stereo not drawn)
2 | 201 to 202 | O=C(Nc1nccs1)C(CC1CCCC1)c1ccc(Br)cc1 (stereo not drawn) [Example 2, 2-(4-Bromo-phenyl)-3-cyclopentyl-N-thiazol-2-yl-propionamide]
3 | 102 to 107 | Nc1ccc(C(CC2CCCC2)C(=O)Nc2nccs2)cc1 (stereo not drawn) [Example 4, 2-(4-Amino-phenyl)-3-cyclopentyl-N-thiazol-2-yl-propionamide]
4 | 158 to 160 | Nc1cccc(C(CC2CCCC2)C(=O)Nc2nccs2)c1 (stereo not drawn) [Example 5, 2-(3-Amino-phenyl)-3-cyclopentyl-N-thiazol-2-yl-propionamide]
5 | 138.8 to 141.2 | O=C(Nc1nccs1)C(CC1CCCC1)c1cccc(Cl)c1 (stereo not drawn) [Example 6, 2-(3-Chloro-phenyl)-3-cyclopentyl-N-thiazol-2-yl-propionamide]
6 | 210 to 212 | O=C(Nc1nccs1)C(CC1CCCC1)c1ccc(C(F)(F)F)cc1 (stereo not drawn) [Example 8, 3-Cyclopentyl-N-thiazol-2-yl-2-(4-trifluoromethyl-phenyl)-propionamide]
7 | 195 to 196 | CSc1ccc(C(CC2CCCC2)C(=O)Nc2nccs2)cc1 (stereo not drawn) [Example 9, 3-Cyclopentyl-2-(4-methylsulfanyl-phenyl)-N-thiazol-2-yl-propionamide]
8 | 58 to 60 | O=C(Nc1nccs1)C(CC1CCCC1)c1ccc(SC(F)(F)F)cc1 (stereo not drawn) [Example 10, 3-Cyclopentyl-N-thiazol-2-yl-2-(4-trifluoromethylsulfanyl-phenyl)-propionamide]
9 | 121 to 124 | CS(=O)(=O)c1ccc(C(CC2CCCC2)C(=O)Nc2nccs2)cc1[N+](=O)[O-] (stereo not drawn) [Example 14, 3-Cyclopentyl-2-(4-methanesulfonyl-3-nitrophenyl)-N-thiazol-2-yl-propionamide]
10 | 128 to 130 | O=C(Nc1ncc(CO)s1)C(CC1CCCC1)c1ccc(Cl)c(Cl)c1 (stereo not drawn) [Example 15, 3-Cyclopentyl-2-(3,4-dichlorophenyl)-N-(5-hydroxymethyl-thiazol-2-yl)-propionamide]
11 | 85 to 86 | O=C(Nc1nc(CCO)cs1)C(CC1CCCC1)c1ccc(Cl)c(Cl)c1 (stereo not drawn) [Example 16, 3-Cyclopentyl-2-(3,4-dichlorophenyl)-N-[4-(2-hydroxyethyl)-thiazol-2-yl]-propionamide]
12 | 88 to 90 | O=C(Nc1nc(CO)cs1)C(CC1CCCC1)c1ccc(Cl)c(Cl)c1 (stereo not drawn) [Example 17, 3-Cyclopentyl-2-(3,4-dichlorophenyl)-N-(4-hydroxymethyl-thiazol-2-yl)-propionamide]
13 | 100 to 102 | O=C(O)Cc1csc(NC(=O)C(CC2CCCC2)c2ccc(Cl)c(Cl)c2)n1 (stereo not drawn) [Example 18, {2-[3-Cyclopentyl-2-(3,4-dichlorophenyl)-propionylamino]-thiazol-4-yl}-acetic acid]
14 | 269 to 270 | O=C(O)c1cnc(NC(=O)C(CC2CCCC2)c2ccc(Cl)c(Cl)c2)s1 (stereo not drawn) [Example 19, 2-[3-Cyclopentyl-2-(3,4-dichlorophenyl)-propionylamino]-thiazole-5-carboxylic acid]
15 | 186 to 187 | O=C(Nc1nccs1)C(CC1CCCC1)c1ccc([N+](=O)[O-])cc1 (stereo not drawn) [Example 22(A), 3-Cyclopentyl-2-(4-nitro-phenyl)-N-thiazol-2-yl-propionamide]
16 | 95 to 98 | COC(=O)c1csc(NC(=O)C(CC2CCCC2)c2cccc(Cl)c2)n1 (stereo not drawn) [Example 30, 2-[2-(3-Chloro-phenyl)-3-cyclopentyl-propionylamino]-thiazole-4-carboxylic acid methyl ester]
17 | 156 to 157 | COC(=O)c1csc(NC(=O)C(CC2CCCC2)c2ccc(Cl)cc2)n1 (stereo not drawn) [Example 32, 2-[2-(4-Chloro-phenyl)-3-cyclopentyl-propionylamino]-thiazole-4-carboxylic acid methyl ester]
18 | 124 to 126 | CS(=O)(=O)c1ccc(C(CC2CCCC2)C(=O)Nc2nc(CO)cs2)cc1 (stereo not drawn) [Example 35, 3-Cyclopentyl-N-(4-hydroxymethyl-thiazol-2-yl)-2-(4-methanesulfonyl-phenyl)-propionamide]
19 | 84 to 87 | CS(=O)(=O)c1ccc(C(CC2CCCC2)C(=O)Nc2nc(CCO)cs2)cc1 (stereo not drawn) [Example 36, 3-Cyclopentyl-N-[4-(2-hydroxyethyl)-thiazol-2-yl]-2-(4-methanesulfonyl-phenyl)-propionamide]
20 | 152 to 154 | O=C(Nc1ccccn1)C(CC1CCCC1)c1ccc([N+](=O)[O-])cc1 (stereo not drawn) [Example 39(A), 3-Cyclopentyl-2-(4-nitro-phenyl)-N-pyridin-2-yl-propionamide]
21 | 127 to 128 | CSc1ccc(C(CC2CCCC2)C(=O)Nc2ccccn2)cc1 (stereo not drawn) [Example 40, 3-Cyclopentyl-2-(4-methylsulfanyl-phenyl)-N-pyridin-2-yl-propionamide]

Row | melting point [°C] | Structure (SMILES)
22 | 101 to 102 | O=C(Nc1ccccn1)C(CC1CCCC1)c1ccc(SC(F)(F)F)cc1 (stereo not drawn) [Example 41, 3-Cyclopentyl-N-pyridin-2-yl-2-(4-trifluoromethylsulfanyl-phenyl)-propionamide]
23 | 172 to 173 | CS(=O)(=O)c1ccc(C(CC2CCCC2)C(=O)Nc2ccccn2)cc1 (stereo not drawn) [Example 42, 3-Cyclopentyl-2-(4-methanesulfonyl-phenyl)-N-pyridin-2-yl-propionamide]
24 | 206 to 208 | O=C(O)c1ccc(NC(=O)C(CC2CCCC2)c2ccc(Cl)cc2)nc1 (stereo not drawn) [Example 47, 6-[2-(4-Chloro-phenyl)-3-cyclopentyl-propionylamino]-nicotinic acid]
25 | 191 to 193 | CS(=O)(=O)c1ccc(C(CC2CCCC2)C(=O)Nc2ccc(C(=O)O)cn2)cc1 (stereo not drawn) [Example 48, 6-[3-Cyclopentyl-2-(4-methanesulfonyl-phenyl)-propionylamino]-nicotinic acid]
26 | 60 to 62 | O=C(Nc1ccc(CO)cn1)C(CC1CCCC1)c1ccc(Cl)cc1 (stereo not drawn) [Example 50, 2-(4-Chloro-phenyl)-3-cyclopentyl-N-(5-hydroxymethyl-pyridin-2-yl)-propionamide]
27 | 79 to 81 | O=C(Nc1ccc(O)cn1)C(CC1CCCC1)c1ccc(Cl)c(Cl)c1 (stereo not drawn) [Example 51, 3-Cyclopentyl-2-(3,4-dichloro-phenyl)-N-(5-hydroxy-pyridin-2-yl)-propionamide]
28 | 74 to 77 | CS(=O)(=O)c1ccc(C(CC2CCCC2)C(=O)Nc2ccc(CO)cn2)cc1 (stereo not drawn) [Example 52, 3-Cyclopentyl-N-(5-hydroxymethyl-pyridin-2-yl)-2-(4-methanesulfonyl-phenyl)-propionamide]
29 | 184 to 185 | Cc1ccc(NC(=O)C(CC2CCCC2)c2ccc(S(C)(=O)=O)cc2)nc1 (stereo not drawn) [Example 53(A), 3-Cyclopentyl-2-(4-methanesulfonyl-phenyl)-N-(5-methyl-pyridin-2-yl)-propionamide]
30 | 58 to 60 | O=C(Nc1ncc[nH]1)C(CC1CCCC1)c1ccc(Cl)c(Cl)c1 (stereo not drawn) [Example 55, 3-Cyclopentyl-2-(3,4-dichlorophenyl)-N-(1H-imidazol-2-yl)-propionamide]
31 | 84 to 86 | Cc1cc(NC(=O)C(CC2CCCC2)c2ccc(Cl)c(Cl)c2)no1 (stereo not drawn) [Example 56, 3-Cyclopentyl-2-(3,4-dichlorophenyl)-N-(5-methyl-isoxazol-3-yl)-propionamide]
32 | 134 to 136 | O=C(Nc1ncco1)C(CC1CCCC1)c1ccc(Cl)c(Cl)c1 (stereo not drawn) [Example 57, 3-Cyclopentyl-2-(3,4-dichlorophenyl)-N-oxazol-2-yl-propionamide]
33 | 70 to 71 | O=C(Nc1cccnn1)C(CC1CCCC1)c1ccc(Cl)c(Cl)c1 (stereo not drawn) [Example 58, 3-Cyclopentyl-2-(3,4-dichlorophenyl)-N-pyridazin-3-yl-propionamide]
34 | 103 to 105 | O=C(Nc1ncccn1)C(CC1CCCC1)c1ccc(Cl)c(Cl)c1 (stereo not drawn) [Example 59, 3-Cyclopentyl-2-(3,4-dichlorophenyl)-N-pyrimidin-2-yl-propionamide]
35 | 166.5 to 169.3 | O=C(Nc1ccncn1)[C@H](CC1CCCC1)c1ccc(Cl)c(Cl)c1 [Example 60, 3-Cyclopentyl-2(R)-(3,4-dichloro-phenyl)-N-pyrimidine-4-yl-propionamide]
36 | 170 to 173 | C[S+]([O-])c1ccc(C(CC2CCCC2)C(=O)Nc2nccs2)cc1 (stereo not drawn) [Example 61, 3-Cyclopentyl-2-(4-methanesulfinyl-phenyl)-N-thiazol-2-yl-propionamide]
37 | 48 to 51 | CCOC(=O)Cc1csc(NC(=O)C(CC2CCCC2)c2ccc(S(=O)(=O)C(F)(F)F)cc2)n1 (stereo not drawn) [Example 62, {2-[3-Cyclopentyl-2-(4-trifluoromethanesulfonyl-phenyl)-propionylamino]-thiazol-4-yl}-acetic acid ethyl ester]
38 | 130 to 132 | O=C(Nc1ccc(Br)cn1)C(CC1CCCC1)c1ccc(S(=O)(=O)C(F)(F)F)cc1 (stereo not drawn) [Example 63, N-(5-Bromo-pyridin-2-yl)-3-cyclopentyl-2-(4-trifluoromethanesulfonyl-phenyl)-propionamide]
39 | 68 to 72 | O=C(Nc1nccs1)C(CC1CCCC1)c1ccc(Cl)c([N+](=O)[O-])c1 (stereo not drawn) [Example 64, 2-(4-Chloro-3-nitro-phenyl)-3-cyclopentyl-N-thiazol-2-yl-propionamide]
40 | 80 to 83 | CS(=O)(=O)c1ccc(C(CC2CCCC2)C(=O)Nc2ccc(Br)cn2)cc1[N+](=O)[O-] (stereo not drawn) [Example 66, N-(5-Bromo-pyridin-2-yl)-3-cyclopentyl-2-(4-methanesulfonyl-3-nitro-phenyl)-propionamide]
41 | 124 to 126 | CS(=O)(=O)c1ccc(C(CC2CCCC2)C(=O)Nc2nccs2)cc1NO (stereo not drawn) [Example 67, 3-Cyclopentyl-2-(3-hydroxyamino-4-methanesulfonyl-phenyl)-N-thiazol-2-yl-propionamide]
42 | 207 to 209 | CS(=O)(=O)c1ccc(C(CC2CCCC2)C(=O)Nc2nccs2)cc1N (stereo not drawn) [Example 68, 2-(3-Amino-4-methanesulfonyl-phenyl)-3-cyclopentyl-N-thiazol-2-yl-propionamide]
